The target of the assay is GCN2 (Homo sapiens, UniProt Q9P2K8). The assay is described as follows: GCN2 enzymatic endpoint assay: phosphorylation of GFP-eIF2α measured by TR-FRET (Lanthascreen). Type of assay: biochemical. Conditions: tested as described in Example 77; compound and/or hydrochloride, dihydrochloride or trifluoroacetic acid salt; read-out: IC 50 Activity. In a few lines:
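Kinase activity is measured as phosphorylation of GFP-labelled eIF2α (80 nM) with ATP at 2 μM. Incubation runs 90 minutes at room temperature before EDTA quench and terbium-antibody detection.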
On the technique in general: In TR-FRET formats the signal depends on donor and acceptor labels being close together.

The structures appear in SMILES notation.

Chain of GCN2 (Q9P2K8 whole entry): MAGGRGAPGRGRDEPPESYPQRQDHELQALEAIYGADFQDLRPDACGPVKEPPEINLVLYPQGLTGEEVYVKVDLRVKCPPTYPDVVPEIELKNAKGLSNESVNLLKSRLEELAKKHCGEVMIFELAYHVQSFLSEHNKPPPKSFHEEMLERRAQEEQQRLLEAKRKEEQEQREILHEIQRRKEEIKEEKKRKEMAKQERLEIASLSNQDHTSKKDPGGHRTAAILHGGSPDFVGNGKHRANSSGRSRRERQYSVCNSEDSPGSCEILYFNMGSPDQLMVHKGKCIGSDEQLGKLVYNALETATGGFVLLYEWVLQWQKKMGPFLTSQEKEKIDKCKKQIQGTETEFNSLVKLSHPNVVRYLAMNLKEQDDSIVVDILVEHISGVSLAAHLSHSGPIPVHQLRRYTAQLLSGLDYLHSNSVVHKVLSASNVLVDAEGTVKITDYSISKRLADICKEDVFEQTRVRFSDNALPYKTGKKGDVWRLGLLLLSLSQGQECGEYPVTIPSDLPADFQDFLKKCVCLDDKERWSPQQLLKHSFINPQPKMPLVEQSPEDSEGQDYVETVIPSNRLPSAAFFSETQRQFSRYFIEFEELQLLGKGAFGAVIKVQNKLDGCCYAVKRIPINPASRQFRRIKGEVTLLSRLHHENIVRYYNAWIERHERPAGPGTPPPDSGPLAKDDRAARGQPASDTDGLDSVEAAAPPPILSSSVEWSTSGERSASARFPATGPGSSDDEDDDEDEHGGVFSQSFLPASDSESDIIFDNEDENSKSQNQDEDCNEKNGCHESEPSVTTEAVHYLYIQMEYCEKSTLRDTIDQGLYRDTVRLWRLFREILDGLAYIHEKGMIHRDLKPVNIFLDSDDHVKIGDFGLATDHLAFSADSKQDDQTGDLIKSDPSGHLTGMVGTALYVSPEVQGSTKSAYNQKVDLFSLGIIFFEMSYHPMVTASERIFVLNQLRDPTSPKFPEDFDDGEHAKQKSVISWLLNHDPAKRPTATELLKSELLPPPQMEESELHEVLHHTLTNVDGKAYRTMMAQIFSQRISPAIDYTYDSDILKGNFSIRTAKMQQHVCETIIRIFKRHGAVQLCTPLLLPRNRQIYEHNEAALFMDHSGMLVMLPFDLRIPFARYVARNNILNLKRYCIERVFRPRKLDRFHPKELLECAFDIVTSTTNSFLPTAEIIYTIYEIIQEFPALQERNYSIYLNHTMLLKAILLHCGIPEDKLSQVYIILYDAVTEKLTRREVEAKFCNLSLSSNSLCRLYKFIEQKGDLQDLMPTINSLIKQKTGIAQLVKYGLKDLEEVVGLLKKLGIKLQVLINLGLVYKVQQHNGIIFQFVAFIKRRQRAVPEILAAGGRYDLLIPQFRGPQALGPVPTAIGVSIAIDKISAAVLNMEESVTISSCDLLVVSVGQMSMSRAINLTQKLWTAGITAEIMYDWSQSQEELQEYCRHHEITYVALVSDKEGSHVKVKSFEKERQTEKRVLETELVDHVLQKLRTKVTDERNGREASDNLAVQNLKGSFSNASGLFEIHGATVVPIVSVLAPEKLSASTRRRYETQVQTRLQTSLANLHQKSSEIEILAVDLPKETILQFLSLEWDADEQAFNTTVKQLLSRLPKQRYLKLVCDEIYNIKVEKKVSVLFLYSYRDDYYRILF

Turning to `CNC(=O)[C@]1(C)CC[C@@H](Nc2ncc3c(Br)nn(-c4cc(CN5C(=O)CCC5=O)c5ncccc5c4)c3n2)C1` [(1R,3R)-3-[[3-bromo-1-[8-[(2,5-dioxo-pyrrolidin-1-yl)methyl]-6-quinolyl]pyrazolo[3,4-d]pyrimidin-6-yl]amino]-N,1-dimethyl-cyclopentanecarboxamide], the IC50 is 25 to 200 nM. Take `CNC(=O)[C@]1(C)CC[C@@H](Nc2ncc3c(Br)nn(-c4cc(CN5C(=O)CNCC5=O)c5ncccc5c4)c3n2)C1` [(1R,3R)-3-[[3-bromo-1-[8-[(2,6-dioxo-piperazin-1-yl)methyl]-6-quinolyl]pyrazolo [3,4-d]pyrimidin-6-yl]amino]-N,1-dimethyl-cyclopentanecarboxamide]: the IC50 was in the range of 25 to 200 nM.

As for `CNC(=O)[C@]1(C)CC[C@@H](Nc2ncc3c(Br)nn(-c4cc(CNCCC#N)c5ncccc5c4)c3n2)C1` [(1R,3R)-3-[[3-bromo-1-[8-[(2-cyanoethyl-amino)methyl]-6-quinolyl]pyrazolo[3,4-d]pyrimidin-6-yl]amino]-N,1-dimethyl-cyclopentanecarboxamide], the IC50 lay within 25 to 200 nM. With `CNC(=O)[C@]1(C)CC[C@@H](Nc2ncc3c(Br)nn(-c4cc(CNCCOC)c5ncccc5c4)c3n2)C1` [(1R,3R)-3-[[3-bromo-1-[8-[(2-methoxy-ethylamino)methyl]-6-quinolyl]pyrazolo [3,4-d]pyrimidin-6-yl]amino]-N,1-dimethyl-cyclopentanecarboxamide] the figure was 25 to 200 nM; with `CNC(=O)[C@]1(C)CC[C@@H](Nc2ncc3c(Br)nn(-c4cc(CN5CCNCC5=O)c5ncccc5c4)c3n2)C1` [(1R,3R)-3-[[3-bromo-1-[8-[(2-oxopiperazin-1-yl)methyl]-6-quinolyl]pyrazolo[3,4-d]pyrimidin-6-yl]amino]-N,1-dimethyl-cyclopentanecarboxamide], 25 to 200 nM; with `CNC(=O)[C@]1(C)CC[C@@H](Nc2ncc3c(Br)nn(-c4cc(CN5CCNCCC5=O)c5ncccc5c4)c3n2)C1` [(1R,3R)-3-[[3-bromo-1-[8-[(7-oxo-1,4-diazepan-1-yl)methyl]-6-quinolyl]pyrazolo[3,4-d]pyrimidin-6-yl]amino]-N,1-dimethyl-cyclopentanecarboxamide], 25 to 200 nM. As to `CNC(=O)[C@]1(C)CC[C@@H](Nc2ncc3c(Br)nn(-c4cc(/C=C/P(C)(C)=O)c5ncccc5c4)c3n2)C1` [(1R,3R)-3-[[3-bromo-1-[8-[(E)-2-dimethylphosphorylvinyl]-6-quinolyl]pyrazolo[3,4-d]pyrimidin-6-yl]amino]-N,1-dimethyl-cyclopentanecarboxamide], the IC50 is 25 to 200 nM. `CNC(=O)[C@]1(C)CC[C@@H](Nc2ncc3c(Br)nn(-c4cc(/C=C/S(C)(=O)=O)c5ncccc5c4)c3n2)C1` [(1R,3R)-3-[[3-bromo-1-[8-[(E)-2-methyl-sulfonylvinyl]-6-quinolyl]pyrazolo[3,4-d]pyrimidin-6-yl]amino]-N,1-dimethyl-cyclopentanecarboxamide]: the IC50 was under 25 nM. Take `CNC(=O)[C@]1(C)CC[C@@H](Nc2ncc3c(Br)nn(-c4cc(CNS(=O)(=O)C5COC5)c5nccnc5c4)c3n2)C1` [(1R,3R)-3-[[3-bromo-1-[8-[(oxetan-3-ylsulfonylamino)methyl]quinoxalin-6-yl]pyrazolo[3,4-d]pyrimidin-6-yl]amino]-N,1-dimethyl-cyclopentane-carboxamide]: the IC50 was 25 to 200 nM.

Consider `CNC(=O)[C@]1(C)CC[C@@H](Nc2ncc3c(Br)nn(-c4ccc5c(c4)[C@H](NS(C)(=O)=O)CC5)c3n2)C1` [(1R,3R)-3-[[3-bromo-1-[(3R)-3-(methanesulfonamido)indan-5-yl]pyrazolo [3,4-d]pyrimidin-6-yl]amino]-N,1-dimethyl-cyclopentanecarboxamide], for which the IC50 lay within 25 to 200 nM. For `CNC(=O)[C@]1(C)CC[C@@H](Nc2ncc3c(I)nn(-c4ccc(-c5nnc(C)o5)cc4)c3n2)C1` [(1R,3R)-3-[[3-iodo-1-[4-(5-methyl-1,3,4-oxadiazol-2-yl)phenyl]pyrazolo[3,4-d]pyrimidin-6-yl]amino]-N,1-dimethyl-cyclopentanecarboxamide] the value was under 25 nM.

For the compound `CNC(=O)[C@@H]1CC[C@@H](Nc2ncc3c(I)nn(-c4ccc(-c5nnc(C)o5)cc4)c3n2)C1` [(1R,3R)-3-[[3-iodo-1-[4-(5-methyl-1,3,4-oxadiazol-2-yl)phenyl]pyrazolo[3,4-d]pyrimidin-6-yl]amino]-N-methyl-cyclopentanecarboxamide], the IC50 fell in the range of 25 to 200 nM. For `O=C(NCCn1ccnc1)[C@@H]1CC[C@@H](Nc2ncc3c(Br)nn(-c4ccc5ncccc5c4)c3n2)C1` [(1R,3R)-N-(2-(1H-imidazol-1-yl)ethyl)-3-((3-bromo-1-(quinolin-6-yl)-1H-pyrazolo[3,4-d]pyrimidin-6-yl)amino)cyclopentane-1-carboxamide], the IC50 lay within 25 to 200 nM. With `O=C(NCCc1cnc[nH]1)[C@@H]1CC[C@@H](Nc2ncc3c(Br)nn(-c4cc(F)c5ncccc5c4)c3n2)C1` [(1R,3R)-N-(2-(1H-imidazol-5-yl)ethyl)-3-((3-bromo-1-(8-fluoroquinolin-6-yl)-1H-pyrazolo [3,4-d]pyrimidin-6-yl)amino)cyclopentane-1-carboxamide], the IC50 lay within 25 to 200 nM. For the compound `O=C(NCCc1cnc[nH]1)[C@@H]1CC[C@@H](Nc2ncc3c(Br)nn(-c4ccc5ncccc5c4)c3n2)C1` [(1R,3R)-N-(2-(1H-imidazol-5-yl)ethyl)-3-((3-bromo-1-(quinolin-6-yl)-1H-pyrazolo [3,4-d]pyrimidin-6-yl)amino)cyclopentane-1-carboxamide], the IC50 fell in the range of 200 to 500 nM. For the compound `CC(C)N(CC(N)=O)C(=O)[C@@H]1CC[C@@H](Nc2ncc3c(Br)nn(-c4cc(F)c5ncccc5c4)c3n2)C1` [(1R,3R)-N-(2-amino-2-oxoethyl)-3-((3-bromo-1-(8-fluoroquinolin-6-yl)-1H-pyrazolo[3,4-d]pyrimidin-6-yl)amino)-N-isopropylcyclopentane-1-carboxamide], the IC50 was in the range of 25 to 200 nM. Turning to `CN(CC(N)=O)C(=O)[C@@H]1CC[C@@H](Nc2ncc3c(Br)nn(-c4cc(F)c5ncccc5c4)c3n2)C1` [(1R,3R)-N-(2-amino-2-oxoethyl)-3-((3-bromo-1-(8-fluoroquinolin-6-yl)-1H-pyrazolo[3,4-d]pyrimidin-6-yl)amino)-N-methylcyclopentane-1-carboxamide], the IC50 lay in the range of 25 to 200 nM. With `O=C(NCc1nnn[nH]1)[C@@H]1CC[C@@H](Nc2ncc3c(Br)nn(-c4cc(F)c5ncccc5c4)c3n2)C1` [(1R,3R)-N-((1H-tetrazol-5-yl)methyl)-3-((3-bromo-1-(8-fluoroquinolin-6-yl)-1H-pyrazolo [3,4-d]pyrimidin-6-yl)amino)cyclopentane-1-carboxamide] the figure was 25 to 200 nM; with `O[C@H]1CCC[C@@H]1Nc1ncc2c(Br)nn(-c3cc(F)c4ncccc4c3)c2n1` [(1S,2S)-2-[[3-bromo-1-(8-fluoro-6-quinolyl)pyrazolo[3,4-d]pyrimidin-6-yl]amino] cyclopentanol], 25 to 200 nM; with `CNC(=O)[C@@]1(C)CC[C@@H](Nc2ncc3c(Br)nn(-c4cc(C#N)c5ncccc5c4)c3n2)C1` [(1S,3R)-3-((3-bromo-1-(8-cyanoquinolin-6-yl)-1H-pyrazolo[3,4-d]pyrimidin-6-yl)amino)-N,1-dimethylcyclopentane-1-carboxamide], 25 to 200 nM. Consider `N#Cc1cc(-n2nc(Br)c3cnc(N[C@@H]4CC[C@H](C(=O)NCC5(F)CNC5)C4)nc32)cc2cccnc12` [(1S,3R)-3-((3-bromo-1-(8-cyanoquinolin-6-yl)-1H-pyrazolo[3,4-d]pyrimidin-6-yl)amino)-N-((3-fluoroazetidin-3-yl)methyl)cyclo-pentane-1-carboxamide], for which the IC50 is 25 to 200 nM.

Take `CNC(=O)[C@@]1(C)CC[C@@H](Nc2ncc3c(Br)nn(-c4ccc5ncccc5c4)c3n2)C1` [(1S,3R)-3-((3-bromo-1-(quinolin-6-yl)-1H-pyrazolo[3,4-d]pyrimidin-6-yl)amino)-N,1-dimethylcyclopentane-1-carboxamide]: the IC50 lay in the range of 200 to 500 nM. As for `COCCNC(=O)[C@@]1(C)CC[C@@H](Nc2ncc3c(Br)nn(-c4ccc5ncccc5c4)c3n2)C1` [(1S,3R)-3-((3-bromo-1-(quinolin-6-yl)-1H-pyrazolo[3,4-d]pyrimidin-6-yl)amino)-N-(2-methoxyethyl)-1-methylcyclopentane-1-carboxamide], the IC50 is 500 to 1000 nM. For `CNS(=O)(=O)[C@H]1CC[C@@H](Nc2ncc3c(Br)nn(-c4ccc5ncccc5c4)c3n2)C1` [(1S,3R)-3-((3-bromo-1-(quinolin-6-yl)-1H-pyrazolo[3,4-d]pyrimidin-6-yl)amino)-N-methylcyclopentane-1-sulfonamide] the value was 500 to 1000 nM. For the compound `CNC(=O)[C@@]1(C)CC[C@@H](Nc2ncc3c(Br)nn(-c4ccc5nccnc5c4)c3n2)C1` [(1S,3R)-3-((3-bromo-1-(quinoxalin-6-yl)-1H-pyrazolo[3,4-d]pyrimidin-6-yl)amino)-N,1-dimethylcyclopentane-1-carboxamide], the IC50 fell in the range of 500 to 1000 nM. Consider `CNC(=O)[C@@]1(COC)CC[C@@H](Nc2ncc3c(I)nn(-c4cc(F)c5ncccc5c4)c3n2)C1` [(1S,3R)-3-[[1-(8-fluoro-6-quinolyl)-3-iodo-pyrazolo[3,4-d]pyrimidin-6-yl]amino]-1-(methoxymethyl)-N-methyl-cyclopentane-carboxamide], for which the IC50 lay within 25 to 200 nM. `C[C@]1(C(=O)O)CC[C@@H](Nc2ncc3c(Br)nn(-c4cc(CCN)c5ncccc5c4)c3n2)C1` [(1S,3R)-3-[[1-[8-(2-aminoethyl)-6-quinolyl]-3-bromo-pyrazolo[3,4-d]pyrimidin-6-yl]amino]-1-methyl-cyclopentanecarboxylic acid]: the IC50 fell in the range of 25 to 200 nM. As for `CNC(=O)[C@@]1(C)CC[C@@H](Nc2ncc3c(Br)nn(-c4ccc5nc(OC)ccc5c4)c3n2)C1` [(1S,3R)-3-[[3-bromo-1-(2-methoxy-6-quinolyl)pyrazolo[3,4-d]pyrimidin-6-yl]amino]-N,1-dimethyl-cyclopentane-carboxamide], the IC50 is under 25 nM.

Values taken from patent US11046699B2, “Pyrazolo-pyrimidin-amino-cycloalkyl compounds and their therapeutic uses” (RAPT THERAPEUTICS, INC., priority 2018, dated 2021).
